From patent publication US8344140B2, “18F-labelled folates” (Merck Eprova AG, priority 2007, dated 2013)

Columns and labels:
[1] = in vitro plasma stability study, human plasma; format: in vitro ADME; conditions: 37° C.
Method: (§1) The ^18F-click folate was employed in in vitro plasma stability studies and in metabolite studies using liver microsomes.
(§2) ^18F-click folate was incubated with both human and murine plasma at 37° C. in a shaking water bath. Aliquots were taken at different time points and analysed by HPLC.

[2] = in vitro plasma stability study, murine plasma; format: in vitro ADME; conditions: 37° C.
Method: as §1, §2

[3] = tested on: folate receptor-positive KB tumors; test: ex vivo biodistribution in nude mice bearing KB xenografts tumors; conditions: ~2 MBq injected, 45 min post injection
Method: ^18F-click folate was applied in ex vivo biodistribution studies using eight nude mice bearing KB xenografts tumors. ˜2 MBq of the radiotracer were injected into each animal. In a blockade group (4 animals) […] natural folic acid was injected 10 min prior to the radiotracer. The animals were scarified 45 min post injection. […] Furthermore a specific uptake with 78% specific blockade was also found in the kidneys, which are known to express the folate receptor.

[4] = tested on: folate receptor-positive KB tumors; test: in vivo PET imaging in nude mice bearing KB xenografts tumors; conditions: ~11 MBq injected; PET scans 15 min to 45 min post injection
Method: In vivo PET imaging using the ^18F-click folate was performed in nude mice bearing KB xenografts tumors. ˜11 MBq of the radiotracer were injected into each animal. In the blockade group 200 μg natural folic acid was injected 10 min prior to the radiotracer. The PET scans were acquired from 15 min to 45 min post injection.
The KB tumors could be imaged by PET using ^18F-click folate.
PET imaging using [^18F]FDG was performed with the same animals four days after the ^18F-click folate studies. ˜9 MBq of [^18F]FDG were injected into each animal. The PET scans were acquired from 30 min to 60 min post injection. […] Although [^18F]FDG is the most commonly used radiotracer in PET tumor imaging, it is known that [^18F]FDG is not suitable for the imaging of KB xenografts tumors (Bettio et al, J. Nucl. Med. […]; 47: 1153-60).
FIG. 4 show the PET images using ^18F-click folate (left hand side) in comparison to PET images using [^18F]FDG (right hand side), the arrows indicate the position of the KB xenografts tumors.

[5] = metabolite study using human liver microsomes; format: in vitro ADME; conditions: 37° C., aliquots at 0, 5, 15 and 30 min
Method: as §1
(§3) Metabolites studies using human and murine liver microsomes were carried out at 37° C. over a time span of 0-30 min. Aliquots were taken at 0, 5, 15 and 30 min.

[6] = metabolite study using murine liver microsomes; format: in vitro ADME; conditions: 37° C., aliquots at 0, 5, 15 and 30 min
Method: as §1, §3

Structure (SMILES): Nc1nc2ncc(CNc3ccc(C(=O)NC(CCC(=O)NCCCCn4cc(CCCC[18F])nn4)C(=O)O)cc3)nc2c(=O)[nH]1 (centres unmarked) [^18F-click folate, γ-(4-(4-(4-[^18F]fluorobutyl)-1,2,3-triazol-1-yl)butyl) folic acid amide]
- stability in plasma ([1]; HPLC analysis, 0-120 min): high stability
- defluorination or other radioactive degradation products in plasma ([1]; over a period of 0-120 min): No defluorination or other radioactive degradation products were detected
- stability in plasma ([2]; HPLC analysis, 0-120 min): high stability
- defluorination or other radioactive degradation products in plasma ([2]; over a period of 0-120 min): No defluorination or other radioactive degradation products were detected
- specific blockade of radiotracer uptake in KB tumors ([3]; KB tumors, natural folic acid 10 min prior in blockade group): 94%
- specific blockade of radiotracer uptake in kidneys ([3]; kidneys, natural folic acid 10 min prior in blockade group): 78%
- unspecific uptake in gallbladder, intestine and feces ([3]; points to hepatobiliary elimination): High unspecific uptake
- accumulation of radioactivity in the abdominal region (gallbladder, intestines) [4]: high accumulation
- tumor-to-background ratio [4]: low
- radioactive metabolites or degradation in liver microsomes [5]: no radioactive metabolites or degradation
- radioactive metabolites or degradation in liver microsomes [6]: no radioactive metabolites or degradation
